Biological target: T1, Dimer of Gag-Pol polyprotein [489-587,Q496K] (Human immunodeficiency virus 1, UniProt P12497, Q496K)
T1 construct: 489-587
Experiment: Protease Inhibition Assay
Conditions: pH 5.5; 30 °C
Method: Assay of HIV protease inhibition was performed by peptide cleavage using the substrate Val-Ser-Gln-Asn-beta-naphthylalanine*Pro-Ile-Val. Products of the cleavage reaction were quantified by HPLC detection, and data were fit to nonlinear least squares equations for determination of steady-state Michaelis-Menten kinetics.

**Q.** How did the IC50 turn out when `O=C(N[C@H]1c2ccccc2OC[C@H]1O)[C@H](Cc1cccnc1)C[C@H](O)CN1CCN(Cc2ccc(-c3ccccc3)o2)C[C@H]1C(=O)NCC(F)(F)F` [(2S)-1-[(2S,4R)-2-hydroxy-4-{[(3S,4S)-3-hydroxy-3,4-dihydro-2H-1-benzopyran-4-yl]carbamoyl}-4-(pyridin-3-ylmethyl)butyl]-4-[(5-phenylfuran-2-yl)methyl]-N-(2,2,2-trifluoroethyl)piperazine-2-carboxamide] was run?
**A.** 20 pM
